Assay results: publication PMC8579695, “The Stringent Response Inhibits 70S Ribosome Formation in Staphylococcus aureus by Impeding GTPase-Ribosome Interactions” (mBio, 2021)

System: RA-GTPases RsgA, RbgA, Era, and HflX
Test: DRaCALA binding and competition assays across the four RA-GTPases
Design: species or system Staphylococcus aureus
Settings: 100 μM cold competitor
Excerpt: FIG 1 Nucleotide binding characteristics of RA-GTPases. (A) Schematic representation of the domain structure of Era, RsgA, RbgA, and HflX from S. aureus. The conserved GTPase domain (G domain) is colored in green, and accessory domains are shown. (B) Determination of binding affinities and Kd values for ^32P-labeled GTP, GDP, ppGpp, and pppGpp with purified recombinant 6×His-tagged RbgA using DRaCALA, as previously described ([36]). Each point is the mean average of at least three technical replicates, and error bars indicate standard deviations. (C) Binding assay (DRaCALA) of recombinant RbgA binding to ^32P-labeled GTP, ppGpp, and pppGpp in the presence of an excess of cold competitor (GTP, GDP, ppGpp, pppGpp, or ATP). All experiments were carried out in triplicate, with error bars representing standard deviations. […]
Supplementary file : FIG S2 Examination of the binding of GDP, ppGpp, GTP, and pppGpp to RA-GTPases by DRaCALA. […] Kd values were determined from the binding curves as previously described ([36]). […]
Structural data places (p)ppGpp within the GTP-binding site of the RA-GTPase RbgA ([6]), indicating a competitive mode of inhibition. […] Based on our measured affinities (Table 1), we speculate that both GDP and ppGpp will outcompete other nucleotides for occupancy of the binding site. […]

## Nc1nc2c(ncn2[C@@H]2O[C@H](COP(=O)(O)OP(=O)(O)O)[C@@H](OP(=O)(O)OP(=O)(O)O)[C@H]2O)c(=O)[nH]1 [ppGpp]
  competition of cold unlabeled nucleotide with 32P-labeled GTP, ppGpp, pppGpp: competing more effectively
